The results in this text go back to article PMC12090182, “Repurposing of the RIPK1-Selective Benzo[1,4]oxazepin-4-one Scaffold for the Development of a Type III LIMK1/2 Inhibitor” (ACS Chemical Biology, 2025).

The subject of the series is U2OS cells. The class given is cell-based. The conditions noted are these: human, 0 h, 1 µM. Here is the method: To assess the influence on cell health, a high-content screening in living cells called the multiplex high-content assay, as described previously by Tjaden et al., was performed.[38] In brief, HEK293T (ATCC CRL-1573) and U2OS (ATCCHTB-96) were cultured in DMEM plus L-glutamine (high glucose) supplemented by 10% FBS (Gibco) and penicillin/streptomycin (Gibco). MRC-9 fibroblasts ([…]) were cultured in EMEM plus L-glutamine supplemented by 10% FBS (Gibco) and penicillin/streptomycin (Gibco). Cells were seeded at a density of 1250 cells per well in a 384-well plate in a culture medium (cell culture microplate, PS, f-bottom, μClear, 781091, Greiner), with a volume of 50 μL per well. All outer wells were filled with 100 μL of PBS buffer (Gibco). […] The cell shape and fluorescence were measured before treatment and 12, 24, and 48 h after compound treatment using the CQ1 high-content confocal microscope (Yokogawa, Musashino, Japan). […] The compounds were tested at 1 and 10 μM, respectively. Acquired images of the cells were processed using Yokogawa CellPathfinder software (v3.04.02.02). […] Results were normalized to cells exposed to 0.1% DMSO. All compounds were tested in biological duplicates, and SEM (standard error of mean) was calculated of biological duplicates.

For `CN1C(=O)[C@@H](N2CCc3c(C(N)=O)nn(Cc4ccccc4)c3C2=O)COc2ccccc21` [Compound 11], the “Population apoptotic cell (%)” value was determined as 66.67%.
